According to patent publication US12540131B2 (Merck Sharp & Dohme LLC, priority 2019, dated 2026):

Target: GST tagged truncated human mutant G2019S LRRK2 (Homo sapiens (Human), UniProt Q5S007, G2019S)
Assay: LRRK2 Km ATP LanthaScreen Assay
Type: biochemical
Conditions: G2019S LRRK2, 134 μM ATP (Km ATP), mean values; for IC50: read-out: LRRK2 pIC50 (converted)
Summary of the method: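 Enzyme (GST-tagged, truncated) was preincubated with compound for 15 min at RT in 50 mM Tris pH 8.5, 10 mM MgCl2, 0.01% Brij-35, 1 mM EGTA, 2 mM DTT and 0.05 mM orthovanadate. Fluorescein-LRRKtide and 134 μM ATP (Km) were then added for 90 min. EDTA and Tb-anti-pERM antibody stopped the reaction; the TR-FRET 520/495 ratio gave 4-parameter IC50s, reported as mean pIC50.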

Sequence of GST tagged truncated human mutant G2019S LRRK2 (Q5S007 970-2527 G2019S): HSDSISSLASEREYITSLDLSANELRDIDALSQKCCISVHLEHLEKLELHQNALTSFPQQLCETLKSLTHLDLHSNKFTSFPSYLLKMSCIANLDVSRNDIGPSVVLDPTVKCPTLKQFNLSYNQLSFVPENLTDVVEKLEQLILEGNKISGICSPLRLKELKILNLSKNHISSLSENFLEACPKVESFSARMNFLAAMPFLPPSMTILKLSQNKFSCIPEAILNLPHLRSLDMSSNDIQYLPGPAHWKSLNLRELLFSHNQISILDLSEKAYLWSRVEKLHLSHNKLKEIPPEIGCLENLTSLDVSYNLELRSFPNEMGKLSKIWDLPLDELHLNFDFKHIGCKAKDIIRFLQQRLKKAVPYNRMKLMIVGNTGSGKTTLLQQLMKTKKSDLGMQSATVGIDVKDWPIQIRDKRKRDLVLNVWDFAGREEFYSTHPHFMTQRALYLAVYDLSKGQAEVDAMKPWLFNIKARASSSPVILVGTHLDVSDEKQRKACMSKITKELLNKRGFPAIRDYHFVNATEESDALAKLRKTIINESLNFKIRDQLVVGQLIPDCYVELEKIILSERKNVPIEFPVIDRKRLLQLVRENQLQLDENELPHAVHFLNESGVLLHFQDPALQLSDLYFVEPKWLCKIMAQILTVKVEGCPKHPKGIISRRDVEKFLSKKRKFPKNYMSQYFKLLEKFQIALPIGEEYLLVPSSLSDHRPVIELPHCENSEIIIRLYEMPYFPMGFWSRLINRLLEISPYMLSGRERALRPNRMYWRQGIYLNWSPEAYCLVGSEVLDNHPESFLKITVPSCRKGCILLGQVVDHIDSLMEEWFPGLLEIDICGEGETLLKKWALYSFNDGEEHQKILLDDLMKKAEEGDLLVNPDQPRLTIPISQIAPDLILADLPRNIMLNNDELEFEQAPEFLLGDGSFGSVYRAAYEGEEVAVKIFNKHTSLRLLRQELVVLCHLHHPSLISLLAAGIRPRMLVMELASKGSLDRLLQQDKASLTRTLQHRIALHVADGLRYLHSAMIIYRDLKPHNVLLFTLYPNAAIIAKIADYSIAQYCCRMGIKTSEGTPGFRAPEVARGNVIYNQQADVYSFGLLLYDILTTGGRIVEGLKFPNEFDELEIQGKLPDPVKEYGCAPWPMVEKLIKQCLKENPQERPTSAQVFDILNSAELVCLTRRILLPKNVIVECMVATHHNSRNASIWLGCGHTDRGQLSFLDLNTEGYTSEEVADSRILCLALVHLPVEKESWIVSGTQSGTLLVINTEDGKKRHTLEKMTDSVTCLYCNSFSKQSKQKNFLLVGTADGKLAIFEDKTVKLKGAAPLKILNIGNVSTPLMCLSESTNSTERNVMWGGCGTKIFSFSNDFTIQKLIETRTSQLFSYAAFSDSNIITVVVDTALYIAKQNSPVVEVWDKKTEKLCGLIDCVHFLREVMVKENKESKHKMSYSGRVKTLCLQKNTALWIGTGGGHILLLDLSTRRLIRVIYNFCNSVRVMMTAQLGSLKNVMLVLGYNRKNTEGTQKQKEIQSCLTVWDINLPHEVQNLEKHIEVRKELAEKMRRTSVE

SMILES | LRRK2 pIC50 | IC50 [nM]
Cc1cc2cnc(Nc3cnn(C45CC(C4)C5)c3Cl)nc2cc1[C@@H]1CCN([C@H]2COC[C@H]2O)C[C@H]1F (single isomer, unassigned) [Ex-8.34, (3S,4S)(3S,4S) or (3S,4S)(3R,4R) or (3R,4R)(3S,4S) or (3R,4R)(3R,4R) 4-[4-(2-{[1-(bicyclo[1.1.1]pentan-1-yl)-5-chloro-1H-pyrazol-4-yl]amino}-6-methylquinazolin-7-yl)-3-fluoropiperidin-1-yl]oxolan-3-ol] | >9.20 | –
Cc1cc2cnc(Nc3cnn(C45CC(C4)C5)c3Cl)nc2cc1[C@H]1CCN([C@@H]2COC[C@@H]2O)C[C@@H]1F (single isomer, unassigned) [Ex-8.35, (3S,4S)(3S,4S) or (3S,4S)(3R,4R) or (3R,4R)(3S,4S) or (3R,4R)(3R,4R) 4-[4-(2-{[1-(bicyclo[1.1.1]pentan-1-yl)-5-chloro-1H-pyrazol-4-yl]amino}-6-methylquinazolin-7-yl)-3-fluoropiperidin-1-yl]oxolan-3-ol] | 8.68 | –
Cc1cc2cnc(Nc3cnn(C45CC(C4)C5)c3Cl)nc2cc1[C@H]1CCN([C@H]2COC[C@H]2O)C[C@@H]1F (single isomer, unassigned) [Ex-8.36, (3S,4S)(3S,4S) or (3S,4S)(3R,4R) or (3R,4R)(3S,4S) or (3R,4R)(3R,4R) 4-[4-(2-{[1-(bicyclo[1.1.1]pentan-1-yl)-5-chloro-1H-pyrazol-4-yl]amino}-6-methylquinazolin-7-yl)-3-fluoropiperidin-1-yl]oxolan-3-ol] | 8.38 | –
O[C@H]1COC[C@H]1N1CC[C@H](c2cc3nc(Nc4cnn(C56CC(C5)C6)c4Cl)ncc3cc2Cl)[C@@H](F)C1 (single isomer, unassigned) [Ex-8.37, (3S,4S)(3S,4S) or (3S,4S)(3R,4R) or (3R,4R)(3S,4S) or (3R,4R)(3R,4R) 4-[4-(2-{[1-(bicyclo[1.1.1]pentan-1-yl)-5-chloro-1H-pyrazol-4-yl]amino}-6-chloroquinazolin-7-yl)-3-fluoropiperidin-1-yl]oxolan-3-ol] | >9.20 | –
Cc1c(Nc2ncc3cc(C(F)(F)F)c(C4CCN([C@@]5(C)COC[C@H]5O)CC4)cc3n2)cnn1C1CC1 (single isomer, unassigned) [Ex-9.1, (3S,4S) or (3R,4R) 4-(4-(2-((1-cyclopropyl-5-methyl-1H-pyrazol-4-yl)amino)-6-(trifluoromethyl)quinazolin-7-yl)piperidin-1-yl)-4-methyltetrahydrofuran-3-ol] | 9.19 | –
Cn1nc(Cl)cc1Nc1ncc2cc(Cl)c(C3CCN([C@@]4(C)COC[C@H]4O)CC3)cc2n1 (single isomer, unassigned) [Ex-10.1, (3S,4S) or (3R,4R) 4-(4-(6-chloro-2-((3-chloro-1-methyl-1H-pyrazol-5-yl)amino)quinazolin-7-yl)piperidin-1-yl)-4-methyltetrahydrofuran-3-ol] | – | 0.776
Cc1cc2cnc(Nc3cnn(C4CC4(F)F)c3Cl)nc2cc1C1CCN([C@@H]2COC[C@@H]2O)CC1 (stereo in doubt) [Ex-2.34, 4-[4-(2-{[5-chloro-1-(2,2-difluorocyclopropyl)-1H-pyrazol-4-yl]amino}-6-methylquinazolin-7-yl)piperidin-1-yl]oxolan-3-ol] | – | < 0.631
Cc1cc(Nc2ncc3cc(Cl)c(C4CCN(C)CC4F)cc3n2)sn1 (stereo in doubt) [Ex-4.52, (3S,4R) or (3R,4R) 6-chloro-7-(3-fluoro-1-methylpiperidin-4-yl)-N-(3-methyl-1,2-thiazol-5-yl)quinazolin-2-amine] | 9.06 | –
CC1(O)CCC(c2cc3nc(Nc4cnn(C5CC5)c4Cl)ncc3cc2Cl)CC1 (stereo not drawn) [Ex-1.17, cis-or trans-4-(6-chloro-2-((5-chloro-1-cyclopropyl-1H-pyrazol-4-yl)amino)quinazolin-7-yl)-1-methylcyclohexan-1-ol] | 8.58 | –
CC1(O)CCC(c2cc3nc(Nc4cnn(C5CC5)c4)ncc3cc2Cl)CC1 (stereo not drawn) [Ex-1.18, cis-or trans-4-(6-chloro-2-((1-cyclopropyl-1H-pyrazol-4-yl)amino)quinazolin-7-yl)-1-methylcyclohexan-1-ol] | 8.59 | –
COCC12CC(n3cc(Nc4ncc5cc(Cl)c(C6CCN(C7(C)COC7)CC6)cc5n4)cn3)(C1)C2 [Ex-2.3, 6-chloro-N-(1-(3-(methoxymethyl)bicyclo[1.1.1]pentan-1-yl)-1H-pyrazol-4-yl)-7-(1-(3-methyloxetan-3-yl)piperidin-4-yl)quinazolin-2-amine] | >9.20 | –
COC(C)(C)Cn1ncc(Nc2ncc3cc(Cl)c(C4CCN(C5COC5)CC4)cc3n2)c1Cl [Ex-2.10, 6-chloro-N-[5-chloro-1-(2-methoxy-2-methylpropyl)-1H-pyrazol-4-yl]-7-[1-(oxetan-3-yl)piperidin-4-yl]quinazolin-2-amine] | >9.20 | –
CC(C)(Cn1ncc(Nc2ncc3cc(Cl)c(C4CCN(C5COC5)CC4)cc3n2)c1Cl)OC(F)F [Ex-2.13, 6-chloro-N-{5-chloro-1-[2-(difluoromethoxy)-2-methylpropyl]-1H-pyrazol-4-yl}-7-[1-(oxetan-3-yl)piperidin-4-yl]quinazolin-2-amine] | 9.15 | –
COC(C)(C)Cn1ncc(Nc2ncc3cc(Cl)c(C4CCN(C5COC5)CC4)cc3n2)c1C [Ex-2.14, 6-chloro-N-[1-(2-methoxy-2-methylpropyl)-5-methyl-1H-pyrazol-4-yl]-7-[1-(oxetan-3-yl)piperidin-4-yl]quinazolin-2-amine] | 9.17 | –
Cc1c(Nc2ncc3cc(Cl)c(C4CCN(C5COC5)CC4)cc3n2)cnn1CC1(C#N)CC1 [Ex-2.15, 1-{[4-({6-chloro-7-[1-(oxetan-3-yl)piperidin-4-yl]quinazolin-2-yl}amino)-5-methyl-1H-pyrazol-1-yl]methyl}cyclopropane-1-carbonitrile] | >9.20 | –
COC(C)(C)Cn1cc(Nc2ncc3cc(Cl)c(C4CCN(C5COC5)CC4)cc3n2)c(C)n1 [Ex-2.16, 6-chloro-N-[1-(2-methoxy-2-methylpropyl)-3-methyl-1H-pyrazol-4-yl]-7-[1-(oxetan-3-yl)piperidin-4-yl]quinazolin-2-amine] | 8.94 | –
Cc1nn(CC2(C#N)CC2)cc1Nc1ncc2cc(Cl)c(C3CCN(C4COC4)CC3)cc2n1 [Ex-2.17, 1-{[4-({6-chloro-7-[1-(oxetan-3-yl)piperidin-4-yl]quinazolin-2-yl}amino)-3-methyl-1H-pyrazol-1-yl]methyl}cyclopropane-1-carbonitrile] | >9.20 | –
CC1(N2CCC(c3cc4nc(Nc5cnn(C67CC(C6)C7)c5)ncc4cc3Cl)CC2)COC1 [Ex-2.18, N-(1-(bicyclo[1.1.1]pentan-1-yl)-1H-pyrazol-4-yl)-6-chloro-7-(1-(3-methyloxetan-3-yl)piperidin-4-yl)quinazolin-2-amine] | – | < 0.631
Cc1c(Nc2ncc3cc(Cl)c(C4CCN(C5COC5)CC4)cc3n2)cnn1C(C)(C)C#N [Ex-2.19, 2-[4-({6-chloro-7-[1-(oxetan-3-yl)piperidin-4-yl]quinazolin-2-yl}amino)-5-methyl-1H-pyrazol-1-yl]-2-methylpropanenitrile] | >9.20 | –
Cc1c(Nc2ncc3cc(Cl)c(C4CCN(C5(C)COC5)CC4)cc3n2)cnn1C(C)(C)C#N [Ex-2.20, 2-[4-({6-chloro-7-[1-(3-methyloxetan-3-yl)piperidin-4-yl]quinazolin-2-yl}amino)-5-methyl-1H-pyrazol-1-yl]-2-methylpropanenitrile] | >9.20 | –
Cc1c(Nc2ncc3cc(Cl)c(C4CCN(C5COC5)CC4)cc3n2)cnn1C12CC(C1)C2 [Ex-2.21, N-[1-(bicyclo[1.1.1]pentan-1-yl)-5-methyl-1H-pyrazol-4-yl]-6-chloro-7-[1-(oxetan-3-yl)piperidin-4-yl]quinazolin-2-amine] | – | 0.676
Cc1c(Nc2ncc3cc(Cl)c(C4CCN(C5(C)COC5)CC4)cc3n2)cnn1C12CC(C1)C2 [Ex-2.22, N-[1-(bicyclo[1.1.1]pentan-1-yl)-5-methyl-1H-pyrazol-4-yl]-6-chloro-7-[1-(3-methyloxetan-3-yl)piperidin-4-yl]quinazolin-2-amine] | >9.20 | –
COCC12CC(n3ncc(Nc4ncc5cc(Cl)c(C6CCN(C7COC7)CC6)cc5n4)c3C)(C1)C2 [Ex-2.31, 6-chloro-N-{1-[3-(methoxymethyl)bicyclo[1.1.1]pentan-1-yl]-5-methyl-1H-pyrazol-4-yl}-7-[1-(oxetan-3-yl)piperidin-4-yl]quinazolin-2-amine] | >9.20 | –
COCC12CC(n3ncc(Nc4ncc5cc(Cl)c(C6CCN(C7(C)COC7)CC6)cc5n4)c3C)(C1)C2 [Ex-2.32, 6-chloro-N-{1-[3-(methoxymethyl)bicyclo[1.1.1]pentan-1-yl]-5-methyl-1H-pyrazol-4-yl}-7-[1-(3-methyloxetan-3-yl)piperidin-4-yl] quinazolin-2-amine] | – | < 0.631
OC1COCC1n1ncc(Nc2ncc3cc(Cl)c(C4CCN(C5COC5)CC4)cc3n2)c1Cl (stereo not drawn) [Ex-2.48, 4-[5-chloro-4-({6-chloro-7-[1-(oxetan-3-yl)piperidin-4-yl]quinazolin-2-yl}amino)-1H-pyrazol-1-yl]oxolan-3-ol] | 8.77 | –
COC(C)(C)C12CC(n3cc(Nc4ncc5cc(Cl)c(C6CCN(C7(C)COC7)CC6)cc5n4)cn3)(C1)C2 [Ex-2.56, 6-chloro-N-{1-[3-(2-methoxypropan-2-yl)bicyclo[1.1.1]pentan-1-yl]-1H-pyrazol-4-yl}-7-[1-(3-methyloxetan-3-yl)piperidin-4-yl]quinazolin-2-amine] | 8.75 | –
CC1(N2CCC(c3cc4nc(Nc5cnn(C67CC(CO)(C6)C7)c5)ncc4cc3Cl)CC2)COC1 [Ex-2.57, {3-[4-({6-chloro-7-[1-(3-methyloxetan-3-yl)piperidin-4-yl]quinazolin-2-yl}amino)-1H-pyrazol-1-yl]bicyclo[1.1.1]pentan-1-yl}methanol] | >9.20 | –
